One assay has as its system anti-Thy 1 model. The note with it: monotherapy, anti-Thy 1 model (Peters et al.); L-arginine 1% in drinking water; cited from earlier work.
Assay [1] deals with anti-Thy-1 nephritis. Nature of the assay: Glomerular mRNA levels after rtPA in anti-Thy-1 nephritis. The assay is classed as in vivo, Sprague-Dawley rats. The settings on record: rtPA treated, day 6, FIG. 10. The protocol: (§1) Six Sprague-Dawley rats with were injected with phosphate buffered saline (PBS, as a control) and 18 rats were injected with 300 ug of mouse monoclonal OX7 antibody produced in the laboratory using commercially obtained hybridoma cells (American Type Culture Collecton (Rockville, Md., USA; Peters et al., Kidney Internatl. 54:1570-1580 (1998)) on day 1 to induce anti-Thy-1 nephritis. Injection of the anti rat-thymocyte antibody intravenously causes binding to an epitope in rat glomerular mesangial cells call Thy 1.1. The complement-mediated mesangial cell lysis that follows initiates a cascade of tissue injury, followed by a repair process that involves induction of TGFβ-driven production and deposition of ECM components. […] These alterations favor decreased plasmin generation which decreases matrix turnover and enhances matrix accumulation. Plasmin is the key to mesangial cell matrix turnover (Baricos et al, Kidney Int. 47:1037-1047 (1995)).
Three days after the initial injection, rtPA (Genentech, Inc., San Francisco, Calif.) in a formulation designed for rodent intravenous injection (GenBank E08757) or PBS was injected intravenously. Injections were repeated twice a day from day 3 to day 5. […] Glomerular staining for ECM matrix proteins (collagen type I and III, fibronection EDA+ and tenascin) and glomerular mRNA levels of TGFβ1, fibronectin and PAI-1 were evaluated at day 6. […]

Another assay has as its system nephritic glomeruli. Nature of the assay: Plasmin generation by isolated nephritic glomeruli after rtPA injection. Type of assay: in vivo, rats. The note with it: rtPA injected 10, 20 and 30 minutes before sacrifice; vs disease control. How it is done: rtPA was injected into nephritic rats 10, 20 and 30 minutes before sacrifice. At sacrifice, glomeruli were isolated and placed in culture with a chromogenic substrate for tPA.

The test system of assay [2] is anti-Thy-1 nephritis. Nature of the assay: Glomerular ECM staining after rtPA in anti-Thy-1 nephritis. The assay is classed as in vivo, Sprague-Dawley rats. How it is done:
as §1
Three days after the initial injection, rtPA (Genentech, Inc., San Francisco, Calif.) in a formulation designed for rodent intravenous injection (GenBank E08757) or PBS was injected intravenously. Injections were repeated twice a day from day 3 to day 5. RtPA was injected i.v. at a dose of 1 mg/kg BW (n'6). Controls received saline (n'6). Glomerular staining for ECM matrix proteins (collagen type I and III, fibronection EDA+ and tenascin) and glomerular mRNA levels of TGFβ1, fibronectin and PAI-1 were evaluated at day 6. Localization of rtPA in nephritic glomeruli and the effect of rtPA on glomerular plasmin were investigated. Rats were sacrificed at day 6 and kidney tissues excised, fixed in formalin and frozen for histological analysis.
Kidney tissue sections were stained for extracellular matrix using Periodic Acid Schiff (PAS) using standard procedures and were stained for specific relevant matrix proteins such as Collagen I, Collagen IV, Fibronectin EDA and tenascin using standard immunohistochemical staining procedures. Matrix proteins were scored by image analysis of 30 glomeruli per rat.

The test system of assay [3] is Normal fetal human mesangial cells. Nature of the assay: Renin-induced TGFβ production by fetal human mesangial cells (ELISA). Type of assay: cell-based. The note with it: for renin-induced increase in TGFβ production: 10^−5 M inhibitor added at zero time with 10^−7 M human recombinant renin, FIG. 3. The protocol: Normal fetal human mesangial cells (Clonetics Corp., Clonetics, Walkersville, Md.) passaged 5 to 8 times, were plated (3,000 cell/cm^2) in 12 well plates in 2 ml of medium (Mesangial Basal Medium (Clonetics Corp.) containing 5% FCS, 10 μg/ml penicillin and 100 μg/ml streptomycin) and allowed to grow to confluence for 48 hours at 37EC, 5% CO2. Cultures were washed three times using sterile phosphate buffered saline at room temperature and then 2 ml/well of serum free MBM medium to induce quiescence. After 48 hours, the serum-free medium was removed and 2 ml/well of fresh serum-free medium was added. Human recombinant renin (Hoffman-La Roche Ltd., Basel, Switzerland) in concentrations from 10^−6 to 10^−12 M was added to each well. A blank and 5 ng/ml of TGFβ (R & D Systems, Minneapolis, Minn.) were used as controls. Cells and supernatants were harvested by centrifugation after 24 hrs of culture and frozen at ^−70EC until analysis. The total production and release of TGFβ into the culture supernatant was measured using an ELISA kit (R & D Systems). Induction of PAI-1 and fibronectin in the supernatant are also measured using anti-PAI-1 and anti-fibronectin antibodies in an ELISA to provide further confirmation of the inhibition of TGFβ. TGFβ, fibronectin and PAI-1 mRNA are measured using semi-quantitative RT-PCR.
Renin inhibitor Ro42-5892 (Hoffman-LaRoche, Basel, Switzerland), Losartan™ (Merck Pharmaceuticals, West Point, Pa.), Enalapril™ (Sigma Chemical Co., St. Louis, Mo., Prod. No. E6888), or TGFβ1 neutralizing antibody (R & D Systems) were added in the amounts indicated below to separate wells in triplicate to block the renin cascade at different sites after stimulation by renin: • 10^−5 M Renin Inhibitor R042-5892 (Hoffman-LaRoche) • 30 ng/ml Anti-TGFβ1 antibody (R & D Systems, #AB 101 NA) • 30 ng/ml Chicken IgG (control for anti-TGFβ1 antibody, R & D Systems, # AB 101 C) • 10^−5 M Enalapril™ (Sigma Chemical Co., St. Louis, Mo.) • 10^−5 M Losartan™ (Merck Pharmaceuticals, West Point, Pa.)
(§2) These inhibitors were added at zero time with 10^−7 M human recombinant renin (Hoffman-LaRoche).
Background: In an ELISA, binding on a coated surface is turned into a signal by an enzyme label.

Assay [4] concerns adult human mesangial cells. Nature of the assay: Renin-induced TGFβ and fibronectin production by adult human mesangial cells (ELISA). The assay is classed as cell-based. The note with it: for renin-induced increase in TGFβ production: 10^−5 M inhibitor added at zero time with 10^−7 M human recombinant renin, adult cells, FIG. 7. How it is done:
Primary cultures of adult human mesangial cells were grown from human nephrectomy tissues using standard methods. Cells were passaged 4-7 times and then plated (3,000 cell/cm^2) in 12 well plates in 2 ml of medium (Mesangial Basal Medium (Clonetics Corp.) containing 5% FCS, 10 μg/ml penicillin and 100 μg/ml streptomycin) and allowed to grow to 70% confluency for 48 hours at 37EC, 5% CO2. Cultures were washed three times using sterile phosphate buffered saline at room temperature and then 2 ml/well of serum free MBM medium to induce quiescence. After 48 hours, the serum-free medium was removed and 2 ml/well of fresh serum-free medium was added for 24 hours. Human recombinant renin (HrRenin, Hoffman-La Roche Ltd., Basel, Switzerland) in concentrations from 10^−6 to 10^−12 M was added to each well for 24 hours. A blank (no HrRenin) was used as a control. Cells and supernatants were harvested by centrifugation after 24 hrs of culture and frozen at ^−70EC until analysis.
The total production and release of TGFβ into the culture supernatant was measured using an ELISA kit (R & D Systems). Induction of the matrix protein fibronectin (Fn) in the supernatant was measured using anti-fibronectin antibodies in an ELISA to provide further confirmation of induction of TGFβ. Renin-induced induction of TGFβ, fibronectin and PAI-1 mRNA were measured over time using semi-quantitative RT-PCR in a multiplex system where multiple cDNAs are amplified simultaneously according to Dostal et al., Anal. Biochem. 223:239-250 (1994), incorporated by reference herein Determinations were done in triplicate mesangial cell cultures.
Renin inhibitor Ro42-5892 (Hoffman-LaRoche, Basel, Switzerland), Losartan™ (Merck Pharmaceuticals, West Point, Pa.), Enalapril™ (Sigma Chemical Co., St. Louis, Mo., Prod. No. E6888), or TGFβ1 neutralizing antibody (R & D Systems) were added in the amounts indicated below to separate wells in triplicate to block the renin cascade at different sites after stimulation by renin: • 10^−5 M Renin Inhibitor R042-5892 (Hoffman-LaRoche) • 10^−5 M Enalapril™ (Sigma Chemical Co., St. Louis, Mo.) • 10^−5 M Losartan™ (Merck Pharmaceuticals, West Point, Pa.) • Controls included neutralizing antibody to TGFβ (ATG) and control IgG (TgG)
as §2

[5] abbreviates: 10^−6M HrRenin, 24 hours, peak of dose response, p<0.05.

Consider `N=C(N)NCCC[C@H](N)C(=O)O` [L-arginine], for which the “reduction of markers of fibrotic disease” value in the assay on anti-Thy 1 model is given as “about 50%”.
In the case of “rtPA: recombinant tissue type plasminogen activator (Genentech)”, the “Glomerular levels of TGFβ1, FN and PAI-1 mRNA” value with anti-Thy-1 nephritis [1] is recorded as “unchanged”. Further, the “Plasmin generation by nephritic glomeruli” value in the assay with nephritic glomeruli is listed as “significantly elevated”. Besides, in the assay on anti-Thy-1 nephritis [2] (rtPA 1 mg/kg BW i.v. twice a day day 3 to 5, day 6, disease control 19±2, p<0.01), the “percentage of the glomerular area with positive staining, fibronectin EDA+” value came out at 14±1%. In addition, in the assay on anti-Thy-1 nephritis [2] (rtPA 1 mg/kg BW i.v. twice a day day 3 to 5, day 6, disease control 27±2, p<0.01), the “percentage of the glomerular area with positive staining, type IV collagen” value turned out to be 23±1%. Further, the “percentage of the glomerular area with positive staining, type I collagen” value with anti-Thy-1 nephritis [2] (rtPA 1 mg/kg BW i.v. twice a day day 3 to 5, day 6, disease control 33±1, p<0.001) is listed as 21±3%. Also, the “percentage of the glomerular area with positive staining, laminin” value with anti-Thy-1 nephritis [2] (rtPA 1 mg/kg BW i.v. twice a day day 3 to 5, day 6, disease control 35±2, p<0.001) worked out at 25±2%. The “matrix accumulated in glomeruli” value in the assay on anti-Thy-1 nephritis [2] (tPA vs control, FIG. 8) is “overall decrease in matrix accumulated”.
On to `CC(C)(C)S(=O)(=O)C[C@@H](Cc1ccccc1)C(=O)N[C@@H](Cc1c[nH]cn1)C(=O)N[C@@H](CC1CCCCC1)[C@@H](O)[C@@H](O)C1CC1` [Ro 42-5892], for which the “renin-induced increase in TGFβ production” value in assay [3] and in assay [4] was “does not reduce the renin-induced increase in TGFβ production” in each case.
As for `CCCCc1nc(Cl)c(CO)n1Cc1ccc(-c2ccccc2-c2nn[nH]n2)cc1` [Losartan], the “renin-induced increase in TGFβ production” value in assay [3] and in assay [4] was “does not reduce the renin-induced increase in TGFβ production” each time. Besides, the “reduction of markers of fibrotic disease” value with anti-Thy 1 model is reported as “about 50%”.

B1: HrRenin: Human recombinant renin (Hoffman-La Roche) (protein, UniProt P00797 67-406, looked up)
Renin: LTLGNTTSSVILTNYMDTQYYGEIGIGTPPQTFKVVFDTGSSNVWVPSSKCSRLYTACVYHKLFDASDSSSYKHNGTELTLRYSTGTVSGFLSQDIITVGGITVTQMFGEVTEMPALPFMLAEFDGVVGMGFIEQAIGRVTPIFDNIISQGVLKEDVFSFYYNRDSENSQSLGGQIVLGGSDPQHYEGNFHYINLIKTGVWQIQMKGVSVGSSTLLCEDGCLALVDTGASYISGSTSSIEKLMEALGAKKRLFDYVVKCNEGPTLPDISFHLGGKEYTLTSADYVFQESYSSKKLCTLAIHAMDIPPPTGPTWALGATFIRKFYTEFDRRNNRIGFALAR
As to B1, the “TGFβ production by cultured human mesangial cells” value in assay [3] (renin 10^−6 to 10^−12 M, 24 hrs, FIG. 2) is recorded as “increases the TGFβ production by cultured human mesangial cells in a dose-dependent manner”. Besides, in assay [4] (setting [5]), the “increase in Fn production” value is 1.4 fold and the “increase in TGFβ production” value amounted to 2 fold. For the same molecule, in assay [4] (10^−7M HrRenin, 24 and 48 hours, p<0.03), the “TGFβ and Fn production, time course” value is “significant increases in TGFβ and Fn production at 24 and 48 hours”.

The record behind these values is patent publication US7763580B2, “Methods for treating conditions associated with the accumulation of excess extracellular matrix” (University of Utah Research Foundation, priority 1999, dated 2010).
